Data set [1] concerns murine B cell lymphoma cell line (A20;ATCC#TIB-208). Nature of the data set: Tritiated thymidine incorporation (growth rate) of cultured lymphoma cells. In kind it is cell-based. Particulars: for Mean, cpm (tritiated thymidine count, growth rate): 12 hours, triplicates. On the procedure:
The effect of methylglyoxal concentration on the growth rate of cultured lymphoma cells is shown below. The cells used were murine B cell lymphoma cell line (A20;ATCC#TIB-208). Cells labeled A20 were untreated cells that were passed through their regular media. A20 Methylglyoxal Reversed cells had undergone 3 passages in media containing 1 mM methylglyoxal followed by 3 passages in regular media before use. A20 Methylglyoxal P6 cells had 6 passages in media containing 1 mM methylglyoxal before use. At the start of the experiment harvested cells were incubated with DNA precursor tritiated thymidine in media containing the various concentrations of methylglyoxal for 12 hours, then harvested and counted in a scintillation counter. The count data in cpm reflect the growth rate of the cells in the presence of the various methylglyoxal concentrations. Relevant data from this in vitro study are presented here.
(In general: Dividing cells build labelled thymidine or BrdU into new DNA.)

Data set [2] concerns cancer cells. Particulars: cited from earlier work.
For data set [3] the following is noted: mice, single oral dose of 200 mg; cited from earlier work.
The conditions of data set [4]: oral administration; cited from earlier work.
For data set [5] the following is noted: (IV) administration at 3.0 grams/m^2; cited from earlier work.

The values that follow come from US8163796B1, “Treatment of cancer by oxidation-reduction potentiation of cancerostatic dicarbonyls” (BioChemical Solutions, LLC, priority 2009, dated 2012).

As for `CC(=O)C=O` [Methylglyoxal, methylglyoxal], the “Survival of lymphoma cells on passage in methylglyoxal” value in data set [1] (1 mM methylglyoxal in media, 3 or 6 passages) was “able to survive”. The “Effect on growth rate” value in data set [1] (1.2 mM methylglyoxal, all three A20 cell groups) is “severely slowed their growth rate”. In addition, the “Growth rate relative to the controls” value in data set [1] (2.5 mM and 5.0 mM methylglyoxal, all three A20 cell groups) is “less than 0.1 % of the controls”. Besides, the “Mean, cpm (tritiated thymidine count, growth rate)” value (“Mean, cpm” for short) is reported as 36,001 cpm in data set [1] (A20 1 mM Methylglyoxal P6 cells, 0.3 mM methylglyoxal); 35,157 cpm in data set [1] (A20 1 mM Methylglyoxal P6 cells, 0.6 mM methylglyoxal); 1,470 cpm in data set [1] (A20 1 mM Methylglyoxal P6 cells, 1.2 mM methylglyoxal); 24 cpm in data set [1] (A20 1 mM Methylglyoxal P6 cells, 2.5 mM methylglyoxal); 9 cpm in data set [1] (A20 1 mM Methylglyoxal P6 cells, 5.0 mM methylglyoxal); 34,220 cpm in data set [1] (A20 1 mM Methylglyoxal Reversed P3 cells, 0.3 mM methylglyoxal). For the same compound, the “Mean, cpm” value in data set [1] (A20 1 mM Methylglyoxal Reversed P3 cells, 0.6 mM methylglyoxal) was 33,927 cpm; in data set [1] (A20 1 mM Methylglyoxal Reversed P3 cells, 1.2 mM methylglyoxal) it was 587 cpm; in data set [1] (A20 1 mM Methylglyoxal Reversed P3 cells, 2.5 mM methylglyoxal) it was 7 cpm; in data set [1] (A20 1 mM Methylglyoxal Reversed P3 cells, 5.0 mM methylglyoxal), 12 cpm; in data set [1] (A20 untreated cells, 0.3 mM methylglyoxal), 36,289 cpm; in data set [1] (A20 untreated cells, 0.6 mM methylglyoxal) it was 30,119 cpm. Also, the “Mean, cpm” value in data set [1] (A20 untreated cells, 1.2 mM methylglyoxal) is reported as 275 cpm; in data set [1] (A20 untreated cells, 2.5 mM methylglyoxal), 6 cpm; in data set [1] (A20 untreated cells, 5.0 mM methylglyoxal), 8 cpm. Further, the “Development of resistance to methylglyoxal” value in data set [1] (A20 Methylglyoxal Reversal and A20 Methylglyoxal P6 cells, passaged in 1 mM methylglyoxal) was “no evidence”. Besides, the “Levels causing protein synthesis inhibition, arrested cell growth and induced apoptosis” value in data set [2] (cancer cells, normal cells were not affected) was 1 to 3 mM. In data set [2] (cultured cancer cells or mice inoculated intraperitoneally with cancer cells), the “Concentration required to achieve 95-100% cell death” value is recorded as approximately 3 mM. The “Time of peak blood concentration” value in data set [3] was 4 h. Also, the Oral uptake entry in data set [4] is recorded as “less than 5%”.
In the case of `CCCCS(=N)(=O)CCC(N)C(=O)O` (stereo not drawn) [buthioinine sulfoximine, buthionine sulfoximine], the Deleterious effects entry in data set [5] is “no deleterious effects”.
